The NIST ThermoML archive (doi:10.1021/je3007666)
Numbers after ± are expanded uncertainties.

Assay: relative permittivity at zero frequency (dimensionless); xn = mol fraction of the nth substance listed
Conditions: 100 kPa, Liquid, Dielectrometer

CCC(C)O (stereo not given) [butan-2-ol] + CCCCO
relative permittivity at zero frequency
Conditions | 288.15 K | 293.15 K | 298.15 K | 303.15 K | 308.15 K
x1 = 0.0501 | 18.97 ± 0.06 | 18.24 ± 0.06 | 17.54 ± 0.06 | 16.86 ± 0.06 | 16.21 ± 0.06
x1 = 0.0987 | 18.93 ± 0.06 | 18.2 ± 0.06 | 17.49 ± 0.06 | 16.81 ± 0.06 | 16.16 ± 0.06
x1 = 0.1506 | 18.89 ± 0.06 | 18.15 ± 0.06 | 17.44 ± 0.06 | 16.76 ± 0.06 | 16.1 ± 0.06
x1 = 0.1998 | 18.86 ± 0.06 | 18.11 ± 0.06 | 17.4 ± 0.06 | 16.71 ± 0.06 | 16.05 ± 0.06
x1 = 0.2503 | 18.82 ± 0.06 | 18.07 ± 0.06 | 17.35 ± 0.06 | 16.65 ± 0.06 | 15.99 ± 0.06
x1 = 0.2986 | 18.79 ± 0.06 | 18.03 ± 0.06 | 17.3 ± 0.06 | 16.6 ± 0.06 | 15.93 ± 0.06
x1 = 0.3512 | 18.75 ± 0.06 | 17.99 ± 0.06 | 17.25 ± 0.06 | 16.54 ± 0.06 | 15.87 ± 0.06
x1 = 0.3977 | 18.72 ± 0.06 | 17.95 ± 0.06 | 17.2 ± 0.06 | 16.49 ± 0.06 | 15.81 ± 0.06
x1 = 0.4497 | 18.69 ± 0.06 | 17.91 ± 0.06 | 17.16 ± 0.06 | 16.43 ± 0.06 | 15.74 ± 0.06
x1 = 0.4998 | 18.67 ± 0.06 | 17.87 ± 0.06 | 17.11 ± 0.06 | 16.37 ± 0.06 | 15.68 ± 0.06
x1 = 0.5501 | 18.64 ± 0.06 | 17.83 ± 0.06 | 17.06 ± 0.06 | 16.32 ± 0.06 | 15.61 ± 0.06
x1 = 0.6011 | 18.61 ± 0.06 | 17.79 ± 0.06 | 17.01 ± 0.06 | 16.26 ± 0.06 | 15.54 ± 0.06
x1 = 0.649 | 18.59 ± 0.06 | 17.76 ± 0.06 | 16.96 ± 0.06 | 16.2 ± 0.06 | 15.47 ± 0.06
x1 = 0.7005 | 18.57 ± 0.06 | 17.72 ± 0.06 | 16.91 ± 0.06 | 16.14 ± 0.06 | 15.4 ± 0.06
x1 = 0.7511 | 18.55 ± 0.06 | 17.68 ± 0.06 | 16.86 ± 0.06 | 16.07 ± 0.06 | 15.32 ± 0.06
x1 = 0.7986 | 18.53 ± 0.06 | 17.65 ± 0.06 | 16.81 ± 0.06 | 16.01 ± 0.06 | 15.25 ± 0.06
x1 = 0.8498 | 18.51 ± 0.06 | 17.62 ± 0.06 | 16.76 ± 0.06 | 15.95 ± 0.06 | 15.17 ± 0.06
x1 = 0.9006 | 18.5 ± 0.06 | 17.58 ± 0.06 | 16.71 ± 0.06 | 15.88 ± 0.06 | 15.09 ± 0.06
x1 = 0.9487 | 18.48 ± 0.06 | 17.55 ± 0.06 | 16.66 ± 0.06 | 15.82 ± 0.06 | 15.01 ± 0.06
x1 = 1 | 18.47 ± 0.06 | 17.51 ± 0.06 | 16.6 ± 0.06 | 15.75 ± 0.06 | 14.94 ± 0.06
